Laboratory results: patent publication US20240343722A1 (VIFOR (INTERNATIONAL) AG, priority 2021, published 2024)

target: T1, ferroportin (Fpn) (Mus musculus, UniProt Q9JHI9); assay: Hepcidin Internalization Assay (J774); type: cell-based; details: Average (AVE) IC50 of multiple measurements; inhibition of TMR-hepcidin (25 nM) internalization into J774 cells
T1 construct: endogenous in cells; host or cells: J774 mouse macrophage cell line, induced with Fe(III)NTA
T1 sequence (Q9JHI9 1-570): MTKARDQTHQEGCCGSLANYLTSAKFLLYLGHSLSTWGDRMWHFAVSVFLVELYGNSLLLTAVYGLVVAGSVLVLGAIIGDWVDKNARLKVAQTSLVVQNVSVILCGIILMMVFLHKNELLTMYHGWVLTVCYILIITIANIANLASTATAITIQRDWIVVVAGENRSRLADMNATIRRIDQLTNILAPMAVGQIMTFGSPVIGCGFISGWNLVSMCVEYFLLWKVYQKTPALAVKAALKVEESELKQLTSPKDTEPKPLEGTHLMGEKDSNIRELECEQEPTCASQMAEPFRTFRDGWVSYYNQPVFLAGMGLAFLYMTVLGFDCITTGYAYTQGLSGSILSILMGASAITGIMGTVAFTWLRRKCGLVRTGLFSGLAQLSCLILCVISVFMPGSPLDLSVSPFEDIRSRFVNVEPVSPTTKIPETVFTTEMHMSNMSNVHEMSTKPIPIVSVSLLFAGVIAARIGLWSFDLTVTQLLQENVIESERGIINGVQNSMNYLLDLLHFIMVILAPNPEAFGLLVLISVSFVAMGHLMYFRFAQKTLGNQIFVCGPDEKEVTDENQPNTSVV
Text: This cellular assay allows quantification of the binding of hepcidin to ferroportin (Fpn) through microscopic detection of internalization of a fluorescently labeled hepcidin into J774 cells. […] Binding of hepcidin to Fpn triggers internalization and degradation of both hepcidin and Fpn. […] Therefore, microscopic detection of cell-associated TMR fluorescence is a measure of hepcidin binding to Fpn and internalization of hepcidin and Fpn. If TMR-hepcidin is prevented from binding to Fpn, cellular TMR fluorescence remains low (Durrenberger et al, 2013). The effect of small molecular weight Fpn inhibitor compounds in this assay was evaluated in vitro as described below. […] After removal of the paraformaldehyde solution, cells were washed 3 times with PBS leaving 100 μl per well and the plates were sealed with foil plate seal. TMR (530-550 nm excitation/575-625 nm emission/400 ms exposure time) and Hoechst 33342 (360-370 nm excitation/420-460 nm emission /10 ms exposure time) fluorescence images were acquired using a […] imager (Olympus) with a 20× high NA objective. […] The acquired image data was analysed with the […] analysis software. […] IC50 values were calculated with the Sum(Mean) raw data using “log(inhibitor) vs. response” curve fitting of Prism 5 software (GraphPad Software Inc., version 5.02). For each data set the fit of the “log(inhibitor) vs. response (three parameters)” model was compared to the fit of the “log(inhibitor) vs. response - Variable slope (four parameters)” model and the IC50 data of the preferred model was used.

Row | IC50 [nM] | SMILES
1 | 35 | COc1cccc(-n2c(CCNCCc3nc(C(=O)NCc4ncccc4F)co3)nc3cc(OC)c(OC)cc32)c1 [Example 72, 2-(2-((2-(5,6-dimethoxy-1-(3-methoxyphenyl)-1H-benzo[d]imidazol-2-yl)ethyl)amino)ethyl)-N-((3-fluoropyridin-2-yl)methyl)oxazole-4-carboxamide]
2 | 4.9 | O=C(NCc1ncccc1F)c1coc(CCNCCc2nc3cc4c(cc3n2CCN2CCCCC2)OCCO4)n1 [Example 74, N-((3-fluoropyridin-2-yl)methyl)-2-(2-((2-(1-(2-(piperidin-1-yl)ethyl)-6,7-dihydro-1H-[1,4]dioxino[2′,3′:4,5]benzo[1,2-d]imidazol-2-yl)ethyl)amino)ethyl)oxazole-4-carboxamide]
3 | 5.1 | CN(C)CCn1c(CCNCCc2nc(C(=O)NCc3ncccc3F)co2)nc2cc3c(cc21)OCCO3 [Example 77, 2-(2-((2-(1-(2-(dimethylamino)ethyl)-6,7-dihydro-1 H-[1,4]dioxino[2′,3′:4,5]benzo[1,2-d]imidazol-2-yl)ethyl)amino)ethyl)-N-((3-fluoropyridin-2-yl)methyl)oxazole-4-carboxamide]

Further lines, the compound ahead of its results:

Row | SMILES | IC50 [nM]
4 | COCCn1c(CCNCCc2nc(C(=O)NCc3ncccc3F)co2)nc2cc3c(cc21)OCO3 [Example 69, N-((3-fluoropyridin-2-yl)methyl)-2-(2-((2-(5-(2-methoxyethyl)-5H-[1,3]dioxolo[4′,5′:4,5]benzo[1,2-d]imidazol-6-yl)ethyl)amino)ethyl)oxazole-4-carboxamide] | 3
5 | COCCn1c(CCNCCc2nc(C(=O)NCc3ncccc3OC)co2)nc2cc3c(cc21)OCO3 [Example 70, 2-(2-((2-(5-(2-methoxyethyl)-5H-[1,3]dioxolo[4′,5′:4,5]benzo[1,2-d]imidazol-6-yl)ethyl)amino)ethyl)-N-((3-methoxypyridin-2-yl)methyl)oxazole-4-carboxamide] | 3.9
6 | O=C(NCc1ncccc1F)c1coc(CCNCCc2nc3cc4c(cc3n2CC(F)F)OCCO4)n1 [Example 71, 2-(2-((2-(1-(2,2-difluoroethyl)-6,7-dihydro-1 H-[1,4]dioxino[2′,3′:4,5]benzo[1,2-d]imidazol-2-yl)ethyl)amino)ethyl)-N-((3-fluoropyridin-2-yl)methyl)oxazole-4-carboxamide] | 7
7 | CC(C)OCCn1c(CCNCCc2nc(C(=O)NCc3ncccc3F)co2)nc2cc3c(cc21)OCCO3 [Example 73, N-((3-fluoropyridin-2-yl)methyl)-2-(2-((2-(1-(2-isopropoxyethyl)-6,7-dihydro-1 H-[1,4]dioxino[2′,3′:4,5]benzo[1,2-d]imidazol-2-yl)ethyl)amino)ethyl)oxazole-4-carboxamide] | 2.6
8 | COc1cccc(-n2c(CCNCCc3nc(C(=O)NCc4ncccc4F)co3)nc3cc4c(cc32)OCO4)c1 [Example 75, N-((3-fluoropyridin-2-yl)methyl)-2-(2-((2-(5-(3-methoxyphenyl)-5H-[1,3]dioxolo[4′,5′:4,5]benzo[1,2-d]imidazol-6-yl)ethyl)amino)ethyl)oxazole-4-carboxamide] | 1.3
9 | COc1cccnc1CNC(=O)c1coc(CCNCCc2nc3cc4c(cc3n2CCN(C)C)OCCO4)n1 [Example 76, 2-(2-((2-(1-(2-(dimethylamino)ethyl)-6,7-dihydro-1 H-[1,4]dioxino[2′,3′:4,5]benzo[1,2-d]imidazol-2-yl)ethyl)amino)ethyl)-N-((3-methoxypyridin-2-yl)methyl)oxazole-4-carboxamide] | 13
10 | O=C(NCc1ncccc1F)c1coc(CCNCCc2nc3cc4c(cc3n2CCN2CCOCC2)OCCO4)n1 [Example 81, N-((3-fluoropyridin-2-yl)methyl)-2-(2-((2-(1-(2-morpholinoethyl)-6,7-dihydro-1 H-[1,4]dioxino[2′,3′:4,5]benzo[1,2-d]imidazol-2-yl)ethyl)amino)ethyl)oxazole-4-carboxamide] | 4
